The values below come from patent US11376255B2, “Thiocarbamate derivatives as A2A inhibitors, pharmaceutical composition thereof and combinations with anticancer agents” (iTeos Belgium SA, priority 2018, dated 2022).

For one assay, the system named is MCA205 tumor cells. The assay can be described thus: Syngeneic MCA205 experimental fibrosarcoma model in combination with Oxaliplatin. The class given is in vivo, C57BL/6 mice. The conditions noted are these: Oxaliplatin 10 mg/kg i.p. single administration at D11, single agent; p=0.0202. An excerpt:
MCA205 tumor cells were inoculated subcutaneously into the right flank of C57BL/6 mice. When tumors reached an average size of about 80 mm^3, mice were randomly allocated into groups.

Another assay relates to CT26 mouse tumor cells. The assay can be described thus: Syngeneic CT26 experimental colon cancer model in combination with Doxorubicin and/or anti-TIGIT mAb.
Assay [1] relates to A20 mouse B-cell tumor cells. The assay can be described thus: Syngeneic A20 experimental lymphoma model in combination with anti-PD-L1. It counts as in vivo, BALB/c mice. The conditions noted are these: for TGI: day 23. The method, then: In this study the anti-tumor efficacy of Compound 7 was assessed either as single agent (monotherapy) or in combination with antagonist anti-Programmed Death-Ligand 1 (anti-PD-L1) monoclonal antibody (10F.9G2, BioXcell) in a model of B cell lymphoma model. (NCR-A2A-031).
BALB/c female mice (8 weeks old) were inoculated with A20 mouse B-cell tumor cells, subcutaneously in the right lower flank region (day 0). When tumors reached a size of about 50 mm^3 (Day 7), mice were allocated randomly into groups and treatment was initiated.

A further assay has as its system Hepa 1-6 tumor cells. The assay can be described thus: Syngeneic HEPA1-6 mouse liver tumor model. The class given is in vivo, C57BL/6 mice. The conditions noted are these: 3 mg/kg p.o. BID, single agent; calculated on Day 22. An excerpt: This study evaluated the anti-tumor activity of Compound 7 in a mouse hepatoma model (NCR-A2A-032).
C57BL/6 female mice (8 weeks old) were inoculated subcutaneously in the right flank region with Hepa 1-6 tumor cells (on day 0). When tumor size reached about 50 mm^3 (on Day 4), mice were randomly allocated into experimental groups and treatment was initiated from day 4 to 25.

For a further assay, the system named is Human CD3+ T cells. The assay can be described thus: Human T cell activation assay in presence of ATP (CFSE proliferation, TNFα AlphaLISA). The conditions noted are these: ATP 100 μM, 72 hours. For orientation: In Alpha technology, singlet oxygen from a donor bead excites a nearby acceptor bead.

From the text for Human CD3+ T cells: PBMC and CD3^+ T cell isolation. Venous blood from healthy volunteers was obtained via ImmuneHealth (Centre Hospitalier Universitaire Tivoli, La Louviere, Belgium). Peripheral blood mononuclear cells (PBMCs) were collected by density gradient centrifugation, using SepMate-50 tubes (StemCell Technologies, Grenoble, France) and Lymphoprep (Axis-shield, Oslo, Norway) according to the manufacturer's instructions. PBMCs were stored in heat inactivated foetal bovine serum (hiFBS; Gibco, ThermoFisher Scientific, Merelbeke, Belgium) containing 10% DMSO in liquid nitrogen until required. PBMCs were thawed and washed into PBS (with 10% hiFBS) and labelled with 1 μM CFSE (Life Technologies) at room temperature for 5 minutes. Cells were washed into StemCell isolation buffer and CD3^+ T cells were isolated by immunomagnetic negative selection, using the EasySep Human T Cell Isolation Kit (StemCell Technologies) as per manufacturer's instructions.
Human T cell activation assay. […]
Cells were placed in a 37° C. humidified tissue culture incubator with 5% CO2 for 72 hours. […] Proliferation of CD4^+ T cells was assessed by determining CFSE dilution by flow cytometry using a BD LSRFortessa (BD Biosciences). Supernatants were later thawed and TNFα was quantified using the AlphaLISA Human TNFα Biotin-Free Detection Kit (AL325; Perkin-Elmer, Zaventem, Belgium), according to the manufacturer's instructions.

For the compound `O=C1[O][Pt]2([NH][C@@H]3CCCC[C@H]3[NH]2)[O]C1=O` [Oxaliplatin], the “tumor growth compared to Vehicle” value in the assay with MCA205 tumor cells was “significant delay in tumor growth”.
As to `COc1cccc2c1C(=O)c1c(O)c3c(c(O)c1C2=O)C[C@@](O)(C(=O)CO)C[C@@H]3O[C@H]1C[C@H](N)[C@H](O)[C@H](C)O1` [Doxorubicin], the “anti-tumor efficacy compared to anti-TIGIT mAb or Doxorubicin stand-alone” value with CT26 mouse tumor cells (Doxorubicin 6 mg/kg in combination with anti-TIGIT mAb 1 mg/kg, p=0.008 and p=0.0002) was “improved anti-tumor efficacy”. For the same compound, in the assay with CT26 mouse tumor cells (Doxorubicin 6 mg/kg on day 10 and 14, single agent, p=0.14), the tumor growth result is on record as “no significant effect on tumor growth”. Also, in the assay with CT26 mouse tumor cells (anti-TIGIT+Doxorubicin combination, out of 10 mice), the “complete responders (CR)” value was “one”.
Usually TGI stands for the reduction of tumour growth relative to the control group. Consider `C[S@@+]([O-])CCOc1cc(N2CCN(CCn3c(=O)sc4c3nc(N)n3nc(-c5ccco5)nc43)CC2)c(F)cc1F` (racemic) [Compound 7, (R,S)-5-amino-3-(2-(4-(2,4-difluoro-5-(2-(methylsulfinyl)ethoxy)phenyl)piperazin-1-yl)ethyl)-8-(furan-2-yl)thiazolo[5,4-e][1,2,4]triazolo[1,5-c]pyrimidin-2(3H)-one], for which the TGI in assay [1] (Compound 7 0.3 mg/kg p.o. BID in combination with anti-PD-L1 mAb 5 mg/kg i.p. Q3D×3) is given as 76%; in assay [1] (Compound 7 3 mg/kg BID in combination with anti-PD-L1 mAb 5 mg/kg i.p. Q3D×3), 82%. The “interaction with anti-PD-L1 mAb on growth of established A20 tumor (statistical analysis)” value in assay [1] (combination with anti-PD-L1 mAb, p=0.017) is recorded as “synergises with anti-PD-L1 mAb”. Also, in the assay with Hepa 1-6 tumor cells, the “tumor growth inhibition (TGI)” value is on record as 44%.
For the compound `CCN(CC)c1ncnc2c1ncn2[C@@H]1O[C@H](COP(=O)(O)OP(=O)(O)C(Br)(Br)P(=O)(O)O)[C@@H](O)[C@H]1O` [ARL67156], in the assay with Human CD3+ T cells (CD39 inhibitors ARL67156 100 μM and POM-1 10 μM without compound 8a), the “restoration of TNFα production inhibited by ATP” value is “approximately 50%”. In addition, the “CD4+ T cell proliferation inhibited by ATP” value in the assay on Human CD3+ T cells (combination of CD39 inhibitors ARL67156 100 μM and POM-1 10 μM) is recorded as “almost completely rescued”.
